Source: patent publication US10703761B2, “Bile acid receptor modulators and methods of use thereof” (City of Hope, priority 2016, dated 2020)

What was measured:
[1] = tested on: db/db mice; settings: mouse, in vivo; cited from earlier work
[2] = target: T1, FXR (Homo sapiens, UniProt Q96RI1); assay: FXR luciferase reporter assay, transient transfection with a synthetic FXR responsive reporter plasmid in HEK293 cells; format: cell-based; settings: compound alone, compared with GW4064
T1 construct: expressed in transfected cells; host or cells: HEK293 (transient)
T1 sequence (Q96RI1 1-486): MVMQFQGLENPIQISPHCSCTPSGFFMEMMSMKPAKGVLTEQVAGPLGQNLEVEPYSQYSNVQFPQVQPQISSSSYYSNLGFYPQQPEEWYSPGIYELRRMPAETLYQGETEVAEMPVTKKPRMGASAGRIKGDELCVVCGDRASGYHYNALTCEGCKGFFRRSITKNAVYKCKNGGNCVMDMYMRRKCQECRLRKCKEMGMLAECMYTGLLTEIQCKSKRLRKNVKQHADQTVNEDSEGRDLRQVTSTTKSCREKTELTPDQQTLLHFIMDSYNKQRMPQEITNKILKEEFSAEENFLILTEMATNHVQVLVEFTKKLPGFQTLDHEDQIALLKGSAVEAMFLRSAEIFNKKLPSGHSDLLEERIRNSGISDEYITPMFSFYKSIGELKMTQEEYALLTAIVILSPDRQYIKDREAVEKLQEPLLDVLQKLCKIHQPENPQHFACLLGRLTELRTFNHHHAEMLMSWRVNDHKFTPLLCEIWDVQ
T1 sequence (P19793 1-462 partner): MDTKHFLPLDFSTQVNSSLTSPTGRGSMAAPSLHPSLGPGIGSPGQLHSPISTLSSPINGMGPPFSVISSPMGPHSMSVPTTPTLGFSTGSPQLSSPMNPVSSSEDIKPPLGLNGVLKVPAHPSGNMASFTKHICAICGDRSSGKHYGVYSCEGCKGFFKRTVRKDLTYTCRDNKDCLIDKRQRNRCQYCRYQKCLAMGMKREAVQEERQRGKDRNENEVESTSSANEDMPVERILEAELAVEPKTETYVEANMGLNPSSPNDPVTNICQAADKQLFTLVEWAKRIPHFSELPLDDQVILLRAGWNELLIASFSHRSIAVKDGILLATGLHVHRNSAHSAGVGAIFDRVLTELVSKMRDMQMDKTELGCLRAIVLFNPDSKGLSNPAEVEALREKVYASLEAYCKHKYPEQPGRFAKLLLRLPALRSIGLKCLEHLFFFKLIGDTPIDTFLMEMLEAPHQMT
Experimental: Effect of berberine derivatives and γ-aminobutyric acid derivative on FXR inhibition was initially assessed using transient transfections with a synthetic FXR responsive reporter plasmid. HEK 293 Cells were treated with vehicle alone or 100 μM CDCA with or without compounds, as indicated. Results are luciferase expression normalized using the β-gal internal control.
TGR5-reporting activity was evaluated by luciferase assay. Treatments were performed in quadruplicate and normalized with β-galactosidase. HEK293 cells were transfected with FXR and RXRα, and FXRE-containing luciferase construct. Cells were treated with 10 μM of indicated compounds; luciferase was measured and normalized with β-galactosidase.
To evaluate TGR5 activity of compounds, cells were transfected 100 ng pCRE-luc reporter along with pCMV-galactosidase (10 ng) as an internal control for normalization of transfection efficiency. Plasmids were complexed with […] of Fugene 6 reagent (Promega, Madison, Wis.) in OptiMEM (Invitrogen, Carlsbad, Calif.) and cells were transfected for 18 h. The following day, cells were treated with vehicle and appropriate ligand as indicated. Luciferase and β-galactosidase activities were assayed 6 h later using Luciferase Assay System (Promega) and Galacto-Star (Applied Biosystems, Foster City, Calif.) reagents, respectively, and a MLX luminometer (Dynex Technologies, Chantilly, Va.). To evaluate the FXR activity of compounds, HEK293 cells were transfected with 25 ng of farnesoid X receptor expression plasmid (pCMX-hFXR), 25 ng of retinoid X receptor expression plasmid (pCMXhRXR), 100 ng of reporter plasmid (pEcREx6-TK-Luc), and 10 ng of pCMV-b-galactosidase as an internal control in each well, using Fugene 6 reagent. Approximately 18 h after transfection, cells were incubated for 12 h with different concentrations of each.

[3] = in vivo; cited from earlier work
[4] = oral 1.0 g/day/person for 3 months; cited from earlier work

Question: For `COc1ccc2cc3[n+](cc2c1OC)CCc1cc2c(cc1-3)OCO2` [berberine], which “Metabolic properties in db/db mice” value [1] is on record?
Answer: Its value is “insulin sensitizing as well as weight- and lipid-lowering properties”.

Question: And the “FXR activity of compound alone (agonism)” value [2]?
Answer: Its value is “failed to activate FXR”.

Question: And the “FXR activity of compound alone (agonism)” value ([2]; listed as Berberine)?
Answer: Its value is “no effect on FXR activity”.

Question: What about the “Plasma concentration / gut restriction” value [3] of the same compound?
Answer: The value was “keeps low concentration in plasma”.

Question: What about the “Efficacy and safety in type 2 diabetes and dyslipidemia” value [4] of the same compound?
Answer: The value was “effective and safe”.
